Data published in US20240201172A1, “USE OF ODORANT RECEPTOR FOR SUPPRESSING LACTATE-INDUCED M2-TYPE DIFFERENTIATION OF TUMOR-ASSOCIATED MACROPHAGES AND TUMOR GROWTH” (KYUNGPOOK NATIONAL UNIVERSITY INDUSTRY-ACADEMIC COOPERATION …, priority 2021, published 2024).

How the values were obtained:
Format in all cases: cell-based
[1] = system: lactate dehydrogenase; assay: Lactate concentration in TCM of mouse tumor cell lines pretreated with oxamic acid; settings: pretreatment of mouse tumor cell lines, FIG. 4A
Procedure: The concentrations of lactate and acetate in TCM of cells cultured at 80% confluency were measured using lactate and acetate colorimetric assay kits (BioVision, Milpitas, CA). Briefly, 50 μL of TCM was mixed with lactate or acetate enzyme mix and the probe according to the manual and reacted for 30 min at room temperature. The concentrations of cytokines in the conditioned medium of macrophages were measured using cytokine ELISA kits (R&D Systems). Briefly, 100 μL of conditioned medium was added to plates precoated with antibodies against IL-4, IL-10, and TGF-β. Samples were reacted with corresponding antibodies conjugated to biotin and then with horseradish peroxidase-labeled streptavidin. Absorbance at 570 nm was measured using a microplate reader. The concentrations of lactate, acetate, and cytokines were calculated from the standard curves.
To determine, though lactate is known to be important in M2 macrophage polarization, whether lactate is the main factor in TCM responsible for Olfr78-mediated M2 macrophage polarization, the prevent inventors treated WT BMDMs with TCM of mouse tumor cell lines pretreated with oxamic acid (OA), an inhibitor of lactate dehydrogenase that prevents lactate production. […] Up-regulation of M2 markers was attenuated (P<0.05) in WT BMDMs treated with lactate-depleted TCM (TCM+OA). […]

[2] = system: BMDMs; assay: M1/M2 polarization of mouse BMDMs (flow cytometry, qRT-PCR, cell shape); settings: for Olfr78 expression: BMDMs differentiated into M2 or M1 macrophages, FIG. 1B
Procedure: BMDMs were isolated from tibias and femurs of C57BL6 or Balb/c mice and cultured in DMEM supplemented with 10 ng/mL macrophage colony-stimulating factor (Gibco, Carlsbad, CA) and 10% FBS for 7 d. The culture medium was changed every other day. For M1 polarization, BMDMs were cultured with 20 ng/mL recombinant mouse IFN-γ (R&D Systems) plus 100 ng/mL LPS for 24 to 48 h. For M2 polarization, BMDMs were cultured with 20 ng/mL recombinant mouse IL-4 for 24 to 48 h. For lactate-mediated M2 polarization, BMDMs were treated with 10 mM lactate (Sigma-Aldrich, St. Louis, MO) at 37° C. in a humidified atmosphere containing 5% CO2 for 24 to 48 h.
(§1) Anti-CD11b, anti-CD3, anti-CD4, anti-CD8, anti-CD86, anti-F4/80, anti-CD206, anti-CD163, and anti-Gr1 antibodies were purchased from BioLegend (San Diego, CA). An anti-Olfr78 antibody was purchased from LSBio (Seattle, WA). Anti-CD206 and anti-CD86 antibody was purchased from Santa Cruz Biotechnology (Dallas, TX). Cells were fixed with 4% paraformaldehyde and then reacted with an untagged primary antibody or a dye-tagged antibody at 4° C. for 30 min in the dark. Cells treated with an untagged primary antibody (anti-Olfr78, anti-CD206, and anti-CD86) were washed and reacted with a dye-tagged secondary antibody. At least 10,000 or more events were analyzed using a flow cytometer (BD Bioscience, San Jose, CA). Data were evaluated using CellQuest Pro software (BD Biosciences). To prepare cell suspensions from tumor tissues, freshly excised tumors were fragmented into several pieces, minced into 2-3 mm^3 pieces, and reacted with collagenase D (Roche, Basel, Switzerland) and DNase (Sigma-Aldrich) at 37° C. for 40 min. The tissue samples were filtered through a 100 μm cell strainer (Falcon, Corning, NY) to collect digested cells. Collected cells were resuspended in phosphate-buffered saline containing FBS and subjected to flow cytometry.
(§2) Cells were lysed using QIAzol lysis reagent (Qiagen, Hilden, Germany). RNA was isolated from cell lysates using an miRNeasy Mini Kit (Qiagen) and subjected to qRT-PCR. Primers targeting Arg1, IL-10, IL-4, TGF-0, IL-12p40, IFN-γ, and R-actin were obtained from Bioneer Inc. (Daejeon, Korea). cDNA was synthesized using a PrimeScript 1st cDNA Synthesis Kit (Takara, Shiga, Japan). qPCR using SYBR Green (Qiagen) was performed on a real time cycler (Bio-Rad, Hercules, CA). R-Actin was used as an endogenous control. Data used to determine relative expression were analyzed according to the Livak method.
To examine the involvement of Olfr78 in lactate-induced M2 polarization of macrophages, the present inventors conducted investigation on whether Olfr78 was expressed in BMDMs isolated from Olfr78^+/+ (WT) and Olfr78^−/− mice. […] Next, the present inventors differentiated BMDMs into M1 and M2 macrophages to investigate whether the expression level of Olfr78 was regulated according to macrophage polarization. Lactate, TCM, and IL-4 were used to stimulate M2 polarization, while lipopolysaccharide (LPS) plus interferon (IFN)-γ (L+I) was used to stimulate M1 polarization. […] To investigate the effect of Olfr78 on macrophage polarization, the present inventors measured the protein levels of M2 macrophage markers such as CD206 (FIG. 1C) and the mRNA levels of IL-4, IL-10, and TGF-β(FIGS. 1E-G), as well as M1 macrophage markers such as CD86 (FIG. 1D) and the mRNA levels of IL-12 and IFN-γ (FIGS. 1H and 1I) when WT and Olfr78^−/− BMDMs were differentiated into M1 and M2 macrophages. […] Next, the present inventors restored Olfr78 expression in Olfr78^−/− BMDMs by transfecting them with a Flag-tagged Olfr78 expression vector.

[3] = molecular target: T1, Olfr78/Gpr132 (Mus musculus, UniProt Q8VBV9+Q9Z282); assay: Luciferase assay in transfected Hana3A cells; settings: Hana3A cells cotransfected with Olfr78 and Gpr132 vs Olfr78 or Gpr132 alone, FIG. 6D
T1 construct: expressed in transfected cells; host or cells: Hana3A cells
T1 sequence (Q8VBV9 1-320): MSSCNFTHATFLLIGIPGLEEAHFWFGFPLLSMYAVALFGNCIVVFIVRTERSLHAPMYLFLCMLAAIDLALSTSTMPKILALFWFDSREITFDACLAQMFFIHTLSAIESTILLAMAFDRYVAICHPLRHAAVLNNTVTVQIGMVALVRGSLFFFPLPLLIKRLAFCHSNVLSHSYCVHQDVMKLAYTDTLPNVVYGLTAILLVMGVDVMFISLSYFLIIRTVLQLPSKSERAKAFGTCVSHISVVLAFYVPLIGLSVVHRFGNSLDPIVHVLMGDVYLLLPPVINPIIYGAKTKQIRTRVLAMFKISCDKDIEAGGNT
T1 sequence (Q9Z282 1-382): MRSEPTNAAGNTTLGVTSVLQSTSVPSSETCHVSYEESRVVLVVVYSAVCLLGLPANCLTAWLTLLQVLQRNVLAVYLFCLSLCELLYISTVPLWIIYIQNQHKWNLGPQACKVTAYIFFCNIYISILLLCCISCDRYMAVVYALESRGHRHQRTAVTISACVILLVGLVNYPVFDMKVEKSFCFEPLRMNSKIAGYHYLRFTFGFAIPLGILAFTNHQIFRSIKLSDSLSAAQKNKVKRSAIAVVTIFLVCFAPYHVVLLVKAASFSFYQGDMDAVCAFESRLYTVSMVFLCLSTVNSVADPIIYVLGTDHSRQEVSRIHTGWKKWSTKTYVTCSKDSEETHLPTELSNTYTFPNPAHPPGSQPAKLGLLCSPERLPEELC
Procedure: Luciferase assays were performed using the Dual-Glo™ Luciferase Assay System (Promega, Madison, WI). Briefly, Mock-, Olfr78−, Gpr132−, or Olfr78/Gpr132 transiently transfected Hana3A cells were stimulated with various concentrations of sodium lactate diluted in CD293 medium at 37° C. for 4 h. The activity of firefly luciferase was normalized against that of Renilla luciferase. Luminescence was measured on a SpectraMax L microplate reader (Molecular Devices, San Jose, CA).

[4] = system: THP-1 human immortalized monocytes; assay: M1/M2 polarization of PMA-treated THP-1 human monocytes; settings: for M1 markers such as iNOS, CD86, TNF-α, and IL-12B / M2 markers such as Arg-1, CD163, CD206, and IL-10: OR51E2-depleted THP1 cells vs untreated; for M1 markers such as iNOS, CD86, TNF-α, and IL-12B: FIGS. 3D, 3E, 3I-K; for M2 markers such as Arg-1, CD163, CD206, and IL-10: FIGS. 3D-H; for protein and mRNA levels of OR51E2: FIGS. 2B, 2C; for levels of M2 macrophage markers such as Arg1, CD206, CD163, and IL-10: FIGS. 2D-H
Procedure: as §1, §2
For coimmunoprecipitation assays, cells were lysed with M-PER Mammalian Protein Extraction Reagent (ThermoFisher Scientific, Waltham, MA). Cell lysates were reacted with 2 μg of an antibody against Olfr78 or Gpr132 at 4° C. overnight and then with 100 μl of protein A-agarose beads (ThermoFisher Scientific) at 4° C. for 4 h with agitation. The beads were boiled, and the eluates were subjected to Western blotting with an antibody against Olfr78 or Gpr132. 40 μg of protein was electrophoresed on a 10% SDS-PAGE gel and transferred to a membrane (MilliPore, Burlington, MA). The membrane was reacted with antibodies against iNOS (Abcam, Cambridge, UK), Arg1 (Abcam), and R-actin (Santa Cruz Biotechnology) at 4° C. overnight followed by secondary antibody at room temperature for 2 h, and then exposed to a chemiluminescence substrate (ThermoFisher Scientific). Signals were visualized using an LAS1000 enhanced chemiluminescence detection system (Fuji Film, Minato, Tokyo).
To examine the effect of ORs on M2 polarization of human macrophages, THP-1 human immortalized monocytes were treated with phorbol myristate acetate (PMA) and then with L+I, IL-4, TCM, or lactate.

## NC(=O)C(=O)O [OA, oxamic acid]
[1]
  lactate in TCM: almost completely depleted

## CC(=O)O [acetate]
[2]; Olfr78−/− BMDMs, FIGS. 4H-J
  M2 polarization: did not induce M2 polarization
[2]; WT BMDMs, FIGS. 4H-J
  mRNA levels of M2 markers such as IL-4, IL-10, and TGF-β: significantly (P<0.001) increased

## CC(O)C(=O)[O-].[Na+] (stereo not drawn) [sodium lactate]
[3]
  Relative luciferase activity: significantly higher

## lactate
[4]; FIG. 2 legend
  M2 polarization of THP-1 human monocytes: induces M2 polarization
[4]
  M1 markers such as iNOS, CD86, TNF-α, and IL-12B: did not up-regulate M2 markers such as Arg-1, CD163, CD206, and IL-10 (FIGS. 3D-H) or down-regulate M1 markers
  M2 markers such as Arg-1, CD163, CD206, and IL-10: did not up-regulate
[4]; THP-1 cells vs untreated, FIGS. 2D, 2E
  iNOS levels: decreased
[4]; THP-1 cells
  protein and mRNA levels of OR51E2: significantly (P<0.01) increased
  levels of M2 macrophage markers such as Arg1, CD206, CD163, and IL-10: increased
[4]; THP-1 cells, FIGS. 2I-K
  levels of M1 macrophage markers such as CD86, TNF-α, and IL-12B: did not affect
[2]
  Olfr78 expression: significantly increased
[2]; Gpr132-depleted Olfr78−/− BMDMs, FIGS. 6G-I
  mRNA levels of IL-4, IL-10, and TGF-β (lactate-induced): further reduced
[2]; Gpr132-depleted WT BMDMs, FIGS. 6G-J
  Lactate-induced up-regulation of mRNA levels of M2 cytokines such as IL-4, IL-10, TGF-β, and Arg1: significantly (P<0.01) reduced
[2]; Olfr78−/− BMDMs vs untreated, FIGS. 1C-I
  M2-specific and M1-specific markers: did not exhibit up-regulation of M2-specific markers or down-regulation of M1-specific markers
[2]; WT BMDMs vs untreated, FIG. 1C
  protein level of CD206 (M2 marker): dramatically (P<0.001) higher
[2]; WT BMDMs vs untreated, FIG. 1D
  protein level of CD86 (M1 marker): significantly lower
[2]; WT BMDMs vs untreated, FIGS. 1E-G
  mRNA levels of IL-4, IL-10, and TGF-β (M2 markers): dramatically (P<0.001) higher
[2]; WT BMDMs vs untreated, FIGS. 1H and 1I
  mRNA levels of IL-12 and IFN-γ (M1 markers): significantly lower
[2]; WT BMDMs vs untreated, FIGS. 4B-E
  M2 polarization markers, such as CD206, IL-4, IL-10, and TGF-0: significant up-regulation
[2]; WT BMDMs vs untreated, FIGS. 4F, 4G
  percentage of cells with an elongated shape: increase

B1: IL-4: recombinant interleukin-4 used to stimulate M2 polarization (protein, UniProt P05112 25-153, looked up)
Interleukin-4: HKCDITLQEIIKTLNSLTEQKTLCTELTVTDIFAASKNTTEKETFCRAATVLRQFYSHHEKDTRCLGATAQQFHRHKQLIRFLKRLDRNLWGLAGLNSCPVKEANQSTLENFLERLKTIMREKYSKCSS
[4]
  M1 markers such as iNOS, CD86, TNF-α, and IL-12B: down-regulated
  M2 markers such as Arg-1, CD163, CD206, and IL-10: still up-regulated
[4]; THP-1 cells
  protein and mRNA levels of OR51E2: significantly (P<0.01) increased
  levels of M2 macrophage markers such as Arg1, CD206, CD163, and IL-10: increased
[2]
  Olfr78 expression: significantly increased
[2]; Olfr78−/− BMDMs, FIG. 1C
  CD206: still up-regulated
[2]; Olfr78−/− BMDMs, FIG. 1D
  CD86: down-regulated
[2]; WT BMDMs vs untreated, FIG. 1C
  protein level of CD206 (M2 marker): up-regulated
[2]; WT BMDMs vs untreated, FIG. 1D
  protein level of CD86 (M1 marker): down-regulated
